Data reported in paper PMC3617406 (Molecular pharmaceutics, 2013).
Structures can show the parent of a compound that is named as a salt. Where two headings read alike, the source gives them in different places.

Experiments:
human NTCP = target: T1, human NTCP (Homo sapiens, UniProt Q14973); format: cell-based; details: for potency estimated from few doses: read-out: Estimated Ki for NTCP; for NTCP inhibitor or non-inhibitor: inhibitor = Ki less than 300 μM
T1 sequence (Q14973 1-349): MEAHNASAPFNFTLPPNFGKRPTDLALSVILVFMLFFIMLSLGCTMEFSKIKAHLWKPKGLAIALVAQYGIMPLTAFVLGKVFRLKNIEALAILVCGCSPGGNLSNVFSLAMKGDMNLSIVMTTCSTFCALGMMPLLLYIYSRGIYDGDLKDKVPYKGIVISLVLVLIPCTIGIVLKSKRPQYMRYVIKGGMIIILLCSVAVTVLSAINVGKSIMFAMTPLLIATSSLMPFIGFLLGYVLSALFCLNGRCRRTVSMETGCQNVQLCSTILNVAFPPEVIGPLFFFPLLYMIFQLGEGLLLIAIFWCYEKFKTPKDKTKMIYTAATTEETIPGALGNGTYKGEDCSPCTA

human ASBT = target: T2, human ASBT (Homo sapiens, UniProt Q12908); format: cell-based; details: for potency estimated from few doses: read-out: Estimated Ki for ASBT; for fold more potent ASBT inhibition than NTCP inhibition: Ki values of Table 4 and 5; for ASBT inhibitor or non-inhibitor: inhibitor = Ki below 300 μM; for taurocholate uptake into ASBT-MDCK cells, percent of control: single drug concentration, same as in NTCP screening (typically 100 μM)
T2 sequence (Q12908 1-348): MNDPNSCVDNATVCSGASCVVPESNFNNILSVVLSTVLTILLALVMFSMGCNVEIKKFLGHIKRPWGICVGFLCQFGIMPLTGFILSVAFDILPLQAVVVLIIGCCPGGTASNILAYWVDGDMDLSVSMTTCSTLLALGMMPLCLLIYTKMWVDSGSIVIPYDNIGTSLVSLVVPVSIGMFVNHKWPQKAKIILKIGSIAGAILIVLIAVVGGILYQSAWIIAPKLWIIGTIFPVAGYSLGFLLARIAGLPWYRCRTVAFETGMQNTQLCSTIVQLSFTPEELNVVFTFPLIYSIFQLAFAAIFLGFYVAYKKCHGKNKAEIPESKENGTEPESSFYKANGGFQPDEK

Row | SMILES | potency estimated from few doses (human NTCP) | potency estimated from few doses (human ASBT) | also measured
1 | NS(=O)(=O)c1cc(C(=O)O)c(NCc2ccco2)cc1Cl [Furosemide] | 304 ± 132 µM | > 100 µM | –
2 | CN1CCC[C@@H]1Cc1c[nH]c2ccc(CCS(=O)(=O)c3ccccc3)cc12 [Eletriptan] | > 100 µM | 137 ± 48 µM | fold more potent ASBT inhibition than NTCP inhibition (human ASBT): ≥ 10 fold
3 | Clc1ccc(C(Cn2ccnc2)OCc2ccsc2Cl)c(Cl)c1 (centres unmarked) [Tioconazole] | – | 11.9 ± 2.7 µM | ASBT inhibitor or non-inhibitor (human ASBT): ASBT inhibitors; taurocholate uptake into ASBT-MDCK cells, percent of control (human ASBT): below 50%
4 | N[C@@H](C(=O)N[C@@H]1C(=O)N2C(C(=O)O)=C(Cl)CS[C@H]12)c1ccccc1 [Cefaclor] | > 100 µM | 1890 ± 257 µM | –
5 | COC(=O)[C@H]1[C@H]2C[C@@H]3c4[nH]c5cc(OC)ccc5c4CCN3C[C@H]2C[C@@H](OC(=O)c2cc(OC)c(OC)c(OC)c2)[C@@H]1OC [Reserpine] | 89.1 ± 65 µM | 21.6 ± 2.9 µM | NTCP inhibitor or non-inhibitor (human NTCP): inhibited human NTCP; NTCP inhibitor or non-inhibitor (human NTCP; listed as reserpine): inhibited NTCP
6 | CCCNCC(O)COc1ccccc1C(=O)CCc1ccccc1 (centres unmarked) [Propafenone HCl] | 402 ± 116 µM | 50.3 ± 18 µM | –
7 | CC[C@H](C)C(=O)O[C@H]1C[C@@H](C)C=C2C=C[C@H](C)[C@H](CC[C@@H]3C[C@@H](O)CC(=O)O3)[C@H]21 [Lovastatin] | 202 ± 32 µM | 21.7 ± 2.1 µM | NTCP inhibitor or non-inhibitor (human NTCP): NTCP inhibitors; taurocholate uptake into ASBT-MDCK cells, percent of control (human ASBT): below 50%
8 | CN1CCN(CC/C=C2/c3ccccc3Sc3ccc(S(=O)(=O)N(C)C)cc32)CC1 [Thiothixene] | > 100 µM | > 100 µM | –
9 | COCCOC(=O)C1=C(C)NC(C)=C(C(=O)OC(C)C)C1c1cccc([N+](=O)[O-])c1 (centres unmarked) [Nimodipine] | – | 30.9 ± 1.7 µM | taurocholate uptake into ASBT-MDCK cells, percent of control (human ASBT): below 50%
10 | COC(=O)[C@@H]1[C@H]2C[C@H]3c4[nH]c5ccccc5c4CCN3C[C@@H]2CC[C@@H]1O [Yohimbine] | > 100 µM | 377 ± 442 µM | –
11 | CCN(CC)CCNC(=O)c1ccc(N)cc1 [Procainamide HCl] | 384 ± 185 µM | > 100 µM | –
12 | CCCCc1nc(Cl)c(CO)n1Cc1ccc(-c2ccccc2-c2nn[nH]n2)cc1 [Losartan] | – | 139 ± 58 µM | –
13 | C[C@H]1[C@H](NC(=O)/C(=N\OC(C)(C)C(=O)O)c2csc(N)n2)C(=O)N1S(=O)(=O)O [Aztreonam] | > 100 µM | 1420 µM | –
14 | COCc1c(C(C)C)nc(C(C)C)c(/C=C/[C@@H](O)C[C@@H](O)CC(=O)O)c1-c1ccc(F)cc1 [Cerivastatin] | – | – | NTCP inhibitor or non-inhibitor (human NTCP): NTCP inhibitors
15 | CC(C)c1nc(CN(C)C(=O)N[C@H](C(=O)N[C@@H](Cc2ccccc2)C[C@H](O)[C@H](Cc2ccccc2)NC(=O)OCc2cncs2)C(C)C)cs1 [Ritonavir] | – | 47.3 ± 9.7 µM | taurocholate uptake into ASBT-MDCK cells, percent of control (human ASBT): below 50%

Now from value to compound, other results behind:

Row | potency estimated from few doses (human NTCP) | potency estimated from few doses (human ASBT) | SMILES | also measured
16 | > 100 µM | 1020 ± 49 µM | CCOC(=O)C1=C[C@@H](OC(CC)CC)[C@H](NC(C)=O)[C@@H](N)C1 [Oseltamivir] | –
17 | 601 ± 300 µM | 61.3 ± 16 µM | Clc1ccc(COC(Cn2ccnc2)c2ccc(Cl)cc2Cl)c(Cl)c1 (centres unmarked) [Miconazole] | ASBT inhibitor or non-inhibitor (human ASBT): ASBT inhibitors
18 | > 100 µM | 103 ± 23 µM | COc1ccc2[nH]c([S+]([O-])Cc3ncc(C)c(OC)c3C)nc2c1 (centres unmarked) [Omeprazole] | fold more potent ASBT inhibition than NTCP inhibition (human ASBT): ≥ 10 fold
19 | 77.1 ± 38 µM | 57 ± 25 µM | CCC(C)n1ncn(-c2ccc(N3CCN(c4ccc(OCC5COC(Cn6cncn6)(c6ccc(Cl)cc6Cl)O5)cc4)CC3)cc2)c1=O (centres unmarked) [Itraconazole] | NTCP inhibitor or non-inhibitor (human NTCP): NTCP inhibitors; ASBT inhibitor or non-inhibitor (human ASBT): ASBT inhibitors
20 | – | 164 ± 34 µM | CC(C)c1nc(N(C)S(C)(=O)=O)nc(-c2ccc(F)cc2)c1/C=C/[C@@H](O)C[C@@H](O)CC(=O)O [Rosuvastatin] | –
21 | 513 ± 169 µM | 313 ± 53 µM | CCC1(C)CC(=O)NC1=O (centres unmarked) [Ethosuximide] | –
22 | 1660 ± 2870 µM | 529 ± 600 µM | O=C1C(CC[S+]([O-])c2ccccc2)C(=O)N(c2ccccc2)N1c1ccccc1 (centres unmarked) [Sulfinpyrazone] | –
23 | 1490 ± 581 µM | 239 ± 117 µM | C=C[C@H]1C[N@@]2CC[C@H]1C[C@H]2[C@H](O)c1ccnc2ccc(OC)cc12 [Quinine] | –
